Test results: ChEMBL document CHEMBL1201862, “PubChem BioAssay data set” (2004)
Activity calls are given as the source filed them.

Columns and labels:
[1] = target: 5-hydroxytryptamine receptor 2A (Mus musculus, UniProt P35363); assay type: functional, cell-based;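 further: CHO-K1 cells with tagged receptor and beta-arrestin; agonist potency measured as compound-induced activation of the receptor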
Mu-type opioid receptor = Mu-type opioid receptor (Homo sapiens, UniProt P35372); assay type: functional, cell-based;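 further: U2OS cells with beta-arrestin recruitment to OPRM1 by beta-gal complementation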
[2] = target: T1, Small ubiquitin-related modifier 2 (Homo sapiens, UniProt P61956); assay: SUMO2 binding disruption by SUMO1 hits – biochemical, FRET, human SUMO2, uHTS hits, selectivity assay for SUMO1 interaction inhibitor project, dose response (AID 624384); assay type: functional; conditions: read-out: IC50_Mean
[3] = target: T2, Small ubiquitin-related modifier 1 (Homo sapiens, UniProt P63165); assay: SUMO1 protein interaction blockers, potency – biochemical, fluorescence polarization, uHTS hits, dose response (AID 624382); assay type: functional; conditions: read-out: IC50_Mean
[4] = target: T3, Corticotropin-releasing factor receptor 2/Corticotropin-releasing factor-binding protein (Homo sapiens, UniProt P24387+Q13324); assay: activators of CRF receptor 2 with binding protein – uHTS hits, confirmation (AID 602473); assay type: functional; conditions: read-out: EC50_Mean
T3 sequence (Q13324 whole entry): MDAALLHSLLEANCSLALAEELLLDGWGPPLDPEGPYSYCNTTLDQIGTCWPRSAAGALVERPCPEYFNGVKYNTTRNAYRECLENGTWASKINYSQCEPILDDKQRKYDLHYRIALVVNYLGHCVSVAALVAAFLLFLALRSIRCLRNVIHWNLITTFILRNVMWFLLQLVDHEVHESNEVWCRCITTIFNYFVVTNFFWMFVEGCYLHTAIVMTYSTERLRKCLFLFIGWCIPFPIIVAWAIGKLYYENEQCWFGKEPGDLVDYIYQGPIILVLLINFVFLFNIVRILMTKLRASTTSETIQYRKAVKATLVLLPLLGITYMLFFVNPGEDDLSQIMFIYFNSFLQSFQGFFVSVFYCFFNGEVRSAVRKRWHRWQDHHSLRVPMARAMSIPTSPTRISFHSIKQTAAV
T3 sequence (P24387 whole entry): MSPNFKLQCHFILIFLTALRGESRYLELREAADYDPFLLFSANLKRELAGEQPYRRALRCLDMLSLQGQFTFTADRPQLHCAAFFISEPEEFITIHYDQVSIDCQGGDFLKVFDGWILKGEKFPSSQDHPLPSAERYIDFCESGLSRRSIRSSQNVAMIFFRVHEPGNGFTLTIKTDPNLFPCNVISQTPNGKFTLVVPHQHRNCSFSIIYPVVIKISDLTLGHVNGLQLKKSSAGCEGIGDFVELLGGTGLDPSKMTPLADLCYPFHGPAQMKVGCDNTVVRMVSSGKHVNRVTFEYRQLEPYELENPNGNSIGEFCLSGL

[5] = target: T3, Corticotropin-releasing factor receptor 2/Corticotropin-releasing factor-binding protein; assay: Dose Response confirmation of uHTS hits for small molecule antagonists of the CRF-binding protein and CRF-R2 receptor complex.; assay type: functional; conditions: read-out: IC50_Mean
[6] = target: T1, Small ubiquitin-related modifier 2; assay: disruption of SUMO2 interaction with SIM peptide – biochemical, fluorescence polarization, uHTS hits, selectivity assay for SUMO1 interaction inhibitor project, dose response (AID 624385); assay type: functional; conditions: read-out: IC50_Mean
Genome polyprotein = Genome polyprotein (dengue virus type 2, UniProt P29990); assay: flavivirus cap methylation enzyme inhibition – biochemical, confirmation dose response, primary screen (AID 588689); assay type: functional
[7] = target: T2, Small ubiquitin-related modifier 1; assay: SUMO1 protein-protein binding blockers, potency – biochemical, FRET, dose response (AID 624383); assay type: functional; conditions: read-out: IC50_Mean
Beta-lactamase [8] = target: T4, Beta-lactamase (Pseudomonas aeruginosa, UniProt Q79MP6); assay: inhibition of IMP-1 beta-lactamase activity – biochemical, epi-absorbance, selectivity assay for VIM-2 inhibitor project, dose response (AID 1920)
Beta Lactamase [9] = target: T5, Beta Lactamase (Pseudomonas aeruginosa, UniProt Q932Y6); assay: VIM-2 CCF2 hydrolysis inhibition, assay artifact filter – biochemical, FRET readout, CCF2 substrate, artefact control for selective VIM-2 inhibitor project, dose response (AID 1926)
Beta-lactamase [10] = target: T6, Beta-lactamase (Salmonella choleraesuis (strain SC-B67), UniProt Q5J463); assay: Epi-absorbance-based counterscreen for selective VIM-2 inhibitors: dose response biochemical high throughput screening assay to identify inhibitors of TEM-1 serine-beta-lactamase.
Beta-lactamase [11] = target: T4, Beta-lactamase; assay: […] counterscreen for selective VIM-2 inhibitors: dose response biochemical high throughput screening assay to identify inhibitors of IMP-1 metallo-beta-lactamase.
Beta Lactamase [12] = target: T5, Beta Lactamase; assay: concentration-dependent VIM-2 enzyme inhibition – biochemical, epi-absorbance readout, selective inhibitors, dose response (AID 1919)
[13] = Counterscreen for activators of the function of SWI/SNF related, matrix associated, actin dependent regulator of chromatin, subfamily a, member 2 (SMARCA2, BRM): Luminescence-based cell-based high throughput dose response assay to identify non-selective compounds using the VP16 reporter assay.; assay type: functional
H4 = assay: Luminescence Cell-Based Dose Response HTS to Identify Activators of 5'UTR Stem-Loop Driven Prion Protein mRNA Translation in H4 Neuroglioblastoma Cells. [Related pubchem assays: 1829 (Project Summary), 1814 (Primary HTS)]; assay type: functional; conditions: Homo sapiens
Prothrombin [14] = target: Prothrombin (Homo sapiens, UniProt P00734); assay: Thrombin 1536 HTS Dose Response Confirmation. [Related pubchem assays: 1046 (Thrombin 1536 HTS; hits were confirmed in this assay)]; assay type: functional
[15] = Luminescence Cell-Based Dose Response HTS to Identify Activators of Luciferase Translation or Activity in H4 […] Cells. [Related pubchem assays: 1829 (Project Summary), 1814 (Primary HTS)]; assay type: functional
[16] = Luminescence Cell-Based Dose Confirmation HTS to Identify Activators of 5'UTR Stem-Loop Driven Alpha-Synuclein mRNA Translation in H4 Neuroglioblastoma Cells. [Related pubchem assays: 1829 (Project Summary), 1814 (Primary HTS)]; assay type: functional
[17] = target: SWI/SNF-related matrix-associated actin-dependent regulator of chromatin subfamily A member 2 (Homo sapiens, UniProt P51531); assay: Luminescence-based cell-based high throughput dose response assay to identify activators of the function of SWI/SNF related, matrix associated, actin dependent regulator of chromatin, subfamily a, member 2 (SMARCA2, BRM).; assay type: functional
[18] = bead-based luminescence quenchers, dual-tagged ARNT – biochemical, AlphaScreen, cherry-pick, artefact control for ARNT-TACC3 interaction inhibitor project, dose response (AID 651705); assay type: functional;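 further: AlphaScreen bead proximity signal that flags compounds interfering with the detection technology; potency reflects signal decrease which marks the compound as an assay artifact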
[19] = target: Potassium voltage-gated channel subfamily KQT member 2 (Rattus norvegicus, UniProt O88943); assay: blockers of KCNQ2 channel current – cell-based, automated electrophysiology, set II, rat KCNQ2, dose response (AID 588637); assay type: functional
[20] = viability loss in HEK293T cells – cell-based, cherry-picks, cytotoxicity control for HIV Vif inhibitor project, dose response (AID 652208); assay type: functional
Streptococcus = assay: GAS UMAA2166 growth inhibition – luminescence, BacTiterGlo, counter-screen for streptokinase expression inhibitor project, dose response (AID 1915); assay type: functional, organism-based;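 further: potency for reduction of bacterial viability or growth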
[21] = system: Streptococcus sp. 'group A'; assay: Streptococcus pyogenes SK(-)GAS viability under kanamycin – luminescence, BacTiterGlo, confirmation, counter-screen for streptokinase expression inhibitor project, dose response (AID 1900); assay type: functional, organism-based
Streptokinase A = target: T7, Streptokinase A (Streptococcus pyogenes serotype M1, UniProt P10520); assay: viability-normalized secreted streptokinase activity reduction – plasminogen activation absorbance, OD405, dose response (AID 1914); assay type: functional, Streptococcus pyogenes M1 GAS;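 further: secreted streptokinase activity via plasminogen activation per viability signal from cell pellet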
T7 sequence (P10520 whole entry): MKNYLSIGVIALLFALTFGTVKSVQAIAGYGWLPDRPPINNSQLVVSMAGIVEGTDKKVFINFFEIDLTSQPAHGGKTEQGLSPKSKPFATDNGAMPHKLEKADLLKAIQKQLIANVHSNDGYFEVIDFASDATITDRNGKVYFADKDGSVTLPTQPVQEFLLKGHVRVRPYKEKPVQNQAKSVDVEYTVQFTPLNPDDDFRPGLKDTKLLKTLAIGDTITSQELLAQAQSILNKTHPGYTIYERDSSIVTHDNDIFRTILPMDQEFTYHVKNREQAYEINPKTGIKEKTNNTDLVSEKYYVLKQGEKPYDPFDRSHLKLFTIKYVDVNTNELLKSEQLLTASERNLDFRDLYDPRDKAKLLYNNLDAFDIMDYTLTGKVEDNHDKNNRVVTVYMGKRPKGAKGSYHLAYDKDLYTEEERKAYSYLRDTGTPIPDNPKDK

Beta-lactamase [22] = target: T6, Beta-lactamase
[23] = target: T8, Low molecular weight phosphotyrosine protein phosphatase (Homo sapiens, UniProt P24666); assay type: functional; conditions: read-out: IC50_Mean
T8 sequence (P24666 whole entry): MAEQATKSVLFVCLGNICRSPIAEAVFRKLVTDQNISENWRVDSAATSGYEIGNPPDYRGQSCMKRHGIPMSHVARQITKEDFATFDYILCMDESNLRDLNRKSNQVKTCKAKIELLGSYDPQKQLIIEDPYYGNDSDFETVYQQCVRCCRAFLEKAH

[24] = target: T8, Low molecular weight phosphotyrosine protein phosphatase; assay type: functional; conditions: read-out: IC50_Mean; remark: listed apart in the source
[25] = target: 72 kDa type IV collagenase (Homo sapiens, UniProt P08253); assay: Dose Response validation of uHTS RPN11 inhibitor hits using a MMP-2 Fluorescence assay.; assay type: functional
[26] = target: 26S proteasome non-ATPase regulatory subunit 14 (Homo sapiens, UniProt O00487); assay: inhibition of proteasome subunit RPN11 – biochemical, fluorescence polarization, uHTS hits, confirmation (AID 602368); assay type: functional
Prothrombin [27] = target: Prothrombin (Bos taurus, UniProt P00735); assay: thrombin protease inhibitors – biochemical, fluorescence polarization, uHTS hits, dose response (AID 602369); assay type: functional
Beta Lactamase [28] = target: T5, Beta Lactamase
Beta-lactamase [29] = target: T4, Beta-lactamase
[30] = target: Hepatocyte nuclear factor 4-alpha (Homo sapiens, UniProt P41235); assay type: functional, cell-based;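 further: biochemical luminescence-based dose-response counterscreen measuring inhibition of HNF4 dimerization, run alongside a screen for blockers of ABHD5–perilipin-5 interaction; split luciferase complementation of HNF4 fusion proteins in cell lysate measuring dimerization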
[31] = target: T9, ATP-dependent translocase ABCB1 (Homo sapiens, UniProt P08183); assay: inhibition of BCRP-mediated JC-1 efflux – Ig-MXP3 cells, flow cytometry, set 2, dose response (AID 504566); assay type: functional; conditions: read-out: EC50_MICROM_;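 further: flow cytometry median green fluorescence of retained JC-1 dye; potency of efflux pump inhibition measured as rising substrate retention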
[32] = target: T9, ATP-dependent translocase ABCB1; assay: P-gp JC-1 efflux blockade concentration-response – Jurkat-DNR cells, flow cytometry, set 2, dose response (AID 504569); assay type: functional; conditions: read-out: EC50_MICROM_;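 further: potency of pump inhibitors that raise cellular JC-1 green fluorescence up to the nicardipine level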
[33] = cytotoxicity in HEK293 background cells – cell-based, dry powder, set 2, counter-screen for EBV LMP1 inhibitor project, dose response (AID 624374); assay type: functional
[34] = inhibitors of EBV LMP1 NF-kappaB signaling – cell-based, luciferase reporter, luminescence, dry powder, set 2, dose response (AID 624376); assay type: functional
cells = assay type: functional
[35] = inhibition of ARNT PAS-B/TACC3 complex formation – biochemical, AlphaScreen, cherry-picked samples, confirmation (AID 651703); assay type: functional, Homo sapiens;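 further: His-tagged ARNT PAS-B domain paired with GST-TACC3 E629A dimer coactivator fragment; potency of inhibitors that break up the complex and lower AlphaScreen signal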

T4 sequence (Q79MP6 whole entry): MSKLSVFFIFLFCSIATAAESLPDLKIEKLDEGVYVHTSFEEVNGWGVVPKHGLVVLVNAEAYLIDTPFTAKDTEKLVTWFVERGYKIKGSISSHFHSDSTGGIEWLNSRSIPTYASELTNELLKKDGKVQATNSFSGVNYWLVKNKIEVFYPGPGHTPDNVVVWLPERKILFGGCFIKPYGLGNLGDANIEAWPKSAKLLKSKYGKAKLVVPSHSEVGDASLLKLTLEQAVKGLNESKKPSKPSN
T5 sequence (Q932Y6 whole entry): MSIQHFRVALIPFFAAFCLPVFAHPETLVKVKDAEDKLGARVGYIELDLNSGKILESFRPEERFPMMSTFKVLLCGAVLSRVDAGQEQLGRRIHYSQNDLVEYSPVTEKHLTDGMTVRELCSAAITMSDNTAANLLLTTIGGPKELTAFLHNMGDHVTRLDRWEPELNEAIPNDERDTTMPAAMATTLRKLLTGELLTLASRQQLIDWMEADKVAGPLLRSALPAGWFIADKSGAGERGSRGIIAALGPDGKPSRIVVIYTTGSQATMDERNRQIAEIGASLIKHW
T9 sequence (P08183 whole entry): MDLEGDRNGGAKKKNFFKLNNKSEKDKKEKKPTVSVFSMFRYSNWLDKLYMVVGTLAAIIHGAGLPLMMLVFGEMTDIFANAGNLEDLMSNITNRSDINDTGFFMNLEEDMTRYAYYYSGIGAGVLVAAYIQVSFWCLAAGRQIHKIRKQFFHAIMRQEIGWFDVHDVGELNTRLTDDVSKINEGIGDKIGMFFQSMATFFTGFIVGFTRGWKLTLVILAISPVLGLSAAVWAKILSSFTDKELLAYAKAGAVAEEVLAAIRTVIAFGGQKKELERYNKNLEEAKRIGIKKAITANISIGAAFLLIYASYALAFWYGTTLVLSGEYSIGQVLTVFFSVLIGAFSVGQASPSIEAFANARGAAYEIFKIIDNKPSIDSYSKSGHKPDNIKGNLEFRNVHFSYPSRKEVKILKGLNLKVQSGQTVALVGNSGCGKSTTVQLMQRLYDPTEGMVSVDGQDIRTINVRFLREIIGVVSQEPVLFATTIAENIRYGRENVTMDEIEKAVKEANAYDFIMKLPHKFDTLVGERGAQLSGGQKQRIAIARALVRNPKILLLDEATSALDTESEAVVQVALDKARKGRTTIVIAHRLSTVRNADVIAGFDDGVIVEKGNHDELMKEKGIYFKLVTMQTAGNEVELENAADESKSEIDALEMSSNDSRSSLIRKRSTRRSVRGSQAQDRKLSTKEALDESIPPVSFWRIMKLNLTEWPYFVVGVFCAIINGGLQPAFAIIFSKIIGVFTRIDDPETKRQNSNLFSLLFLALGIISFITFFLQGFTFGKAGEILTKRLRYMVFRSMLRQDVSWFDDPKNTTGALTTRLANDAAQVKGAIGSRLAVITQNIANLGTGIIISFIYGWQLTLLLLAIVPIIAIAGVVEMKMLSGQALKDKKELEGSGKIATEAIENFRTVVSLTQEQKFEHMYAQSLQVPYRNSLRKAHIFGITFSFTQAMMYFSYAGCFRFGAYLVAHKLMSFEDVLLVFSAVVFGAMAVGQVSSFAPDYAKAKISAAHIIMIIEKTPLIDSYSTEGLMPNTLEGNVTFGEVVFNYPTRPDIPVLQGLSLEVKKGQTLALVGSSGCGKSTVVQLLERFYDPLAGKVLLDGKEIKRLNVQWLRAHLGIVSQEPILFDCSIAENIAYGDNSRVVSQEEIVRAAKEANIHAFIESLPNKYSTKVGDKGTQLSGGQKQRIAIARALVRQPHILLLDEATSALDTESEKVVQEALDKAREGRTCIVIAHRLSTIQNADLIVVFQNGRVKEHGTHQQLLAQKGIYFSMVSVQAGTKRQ
T2 sequence (P63165 whole entry): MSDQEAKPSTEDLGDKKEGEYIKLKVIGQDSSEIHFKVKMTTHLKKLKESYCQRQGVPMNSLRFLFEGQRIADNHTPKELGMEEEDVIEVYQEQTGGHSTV
T1 sequence (P61956 whole entry): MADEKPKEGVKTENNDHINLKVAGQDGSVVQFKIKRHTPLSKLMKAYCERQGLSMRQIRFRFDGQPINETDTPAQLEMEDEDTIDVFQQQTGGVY
T6 sequence (Q5J463 whole entry): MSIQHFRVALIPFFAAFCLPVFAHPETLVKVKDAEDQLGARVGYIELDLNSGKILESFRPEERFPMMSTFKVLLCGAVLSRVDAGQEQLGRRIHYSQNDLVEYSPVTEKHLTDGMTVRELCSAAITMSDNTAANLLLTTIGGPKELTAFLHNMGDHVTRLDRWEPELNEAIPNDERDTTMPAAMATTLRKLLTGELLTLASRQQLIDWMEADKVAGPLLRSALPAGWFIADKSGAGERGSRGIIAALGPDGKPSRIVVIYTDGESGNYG
72 kDa type IV collagenase, sequence (P08253 whole entry): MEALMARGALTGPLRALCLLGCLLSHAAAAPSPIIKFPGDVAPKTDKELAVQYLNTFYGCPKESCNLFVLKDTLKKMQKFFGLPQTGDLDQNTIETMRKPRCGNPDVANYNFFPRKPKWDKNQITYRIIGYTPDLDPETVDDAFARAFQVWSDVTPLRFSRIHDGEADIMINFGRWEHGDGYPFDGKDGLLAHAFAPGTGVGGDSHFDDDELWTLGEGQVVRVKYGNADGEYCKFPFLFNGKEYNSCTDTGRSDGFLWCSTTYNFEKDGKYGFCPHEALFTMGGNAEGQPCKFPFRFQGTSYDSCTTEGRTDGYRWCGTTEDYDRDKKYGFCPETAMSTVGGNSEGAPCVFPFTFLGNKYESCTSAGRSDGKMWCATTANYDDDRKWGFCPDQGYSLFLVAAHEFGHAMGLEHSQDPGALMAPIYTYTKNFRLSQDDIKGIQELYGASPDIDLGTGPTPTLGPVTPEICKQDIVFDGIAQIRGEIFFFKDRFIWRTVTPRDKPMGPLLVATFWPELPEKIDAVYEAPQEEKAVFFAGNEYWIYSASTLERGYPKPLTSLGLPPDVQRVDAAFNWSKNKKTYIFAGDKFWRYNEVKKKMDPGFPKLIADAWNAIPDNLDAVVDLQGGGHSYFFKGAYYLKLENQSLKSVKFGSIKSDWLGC
Genome polyprotein, sequence (P29990 2492-3391 limits assumed): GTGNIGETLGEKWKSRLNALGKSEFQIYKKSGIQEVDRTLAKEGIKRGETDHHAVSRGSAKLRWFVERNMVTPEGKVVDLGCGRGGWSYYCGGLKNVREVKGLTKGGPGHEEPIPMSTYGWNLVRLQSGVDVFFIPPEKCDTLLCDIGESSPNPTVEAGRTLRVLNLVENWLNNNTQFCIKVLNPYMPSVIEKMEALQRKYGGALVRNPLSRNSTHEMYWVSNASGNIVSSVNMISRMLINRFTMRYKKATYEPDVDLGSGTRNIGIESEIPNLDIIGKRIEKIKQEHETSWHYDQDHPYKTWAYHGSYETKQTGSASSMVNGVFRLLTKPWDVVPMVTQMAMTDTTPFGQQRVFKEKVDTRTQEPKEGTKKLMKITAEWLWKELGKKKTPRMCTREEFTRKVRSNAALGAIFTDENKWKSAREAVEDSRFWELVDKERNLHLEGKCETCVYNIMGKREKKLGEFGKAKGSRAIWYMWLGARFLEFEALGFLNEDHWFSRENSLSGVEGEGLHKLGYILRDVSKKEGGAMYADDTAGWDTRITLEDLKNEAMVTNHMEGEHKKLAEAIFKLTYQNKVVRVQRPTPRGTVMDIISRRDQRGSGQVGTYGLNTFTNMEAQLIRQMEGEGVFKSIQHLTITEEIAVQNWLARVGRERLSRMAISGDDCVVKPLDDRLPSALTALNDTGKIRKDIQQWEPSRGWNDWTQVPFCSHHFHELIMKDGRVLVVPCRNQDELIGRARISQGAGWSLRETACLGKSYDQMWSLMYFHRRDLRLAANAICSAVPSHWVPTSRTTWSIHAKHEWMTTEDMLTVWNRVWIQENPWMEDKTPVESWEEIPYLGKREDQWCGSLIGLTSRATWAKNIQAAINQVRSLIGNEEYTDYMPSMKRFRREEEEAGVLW
26S proteasome non-ATPase regulatory subunit 14, sequence (O00487 whole entry): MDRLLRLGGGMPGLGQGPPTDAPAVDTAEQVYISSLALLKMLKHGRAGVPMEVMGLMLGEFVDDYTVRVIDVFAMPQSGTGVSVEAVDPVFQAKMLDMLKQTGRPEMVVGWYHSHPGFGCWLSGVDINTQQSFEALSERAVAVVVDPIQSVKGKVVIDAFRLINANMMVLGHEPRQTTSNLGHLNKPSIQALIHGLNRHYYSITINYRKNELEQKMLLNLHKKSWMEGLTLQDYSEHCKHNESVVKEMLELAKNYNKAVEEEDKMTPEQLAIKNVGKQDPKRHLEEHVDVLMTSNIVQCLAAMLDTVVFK
Potassium voltage-gated channel subfamily KQT member 2, sequence (O88943 whole entry): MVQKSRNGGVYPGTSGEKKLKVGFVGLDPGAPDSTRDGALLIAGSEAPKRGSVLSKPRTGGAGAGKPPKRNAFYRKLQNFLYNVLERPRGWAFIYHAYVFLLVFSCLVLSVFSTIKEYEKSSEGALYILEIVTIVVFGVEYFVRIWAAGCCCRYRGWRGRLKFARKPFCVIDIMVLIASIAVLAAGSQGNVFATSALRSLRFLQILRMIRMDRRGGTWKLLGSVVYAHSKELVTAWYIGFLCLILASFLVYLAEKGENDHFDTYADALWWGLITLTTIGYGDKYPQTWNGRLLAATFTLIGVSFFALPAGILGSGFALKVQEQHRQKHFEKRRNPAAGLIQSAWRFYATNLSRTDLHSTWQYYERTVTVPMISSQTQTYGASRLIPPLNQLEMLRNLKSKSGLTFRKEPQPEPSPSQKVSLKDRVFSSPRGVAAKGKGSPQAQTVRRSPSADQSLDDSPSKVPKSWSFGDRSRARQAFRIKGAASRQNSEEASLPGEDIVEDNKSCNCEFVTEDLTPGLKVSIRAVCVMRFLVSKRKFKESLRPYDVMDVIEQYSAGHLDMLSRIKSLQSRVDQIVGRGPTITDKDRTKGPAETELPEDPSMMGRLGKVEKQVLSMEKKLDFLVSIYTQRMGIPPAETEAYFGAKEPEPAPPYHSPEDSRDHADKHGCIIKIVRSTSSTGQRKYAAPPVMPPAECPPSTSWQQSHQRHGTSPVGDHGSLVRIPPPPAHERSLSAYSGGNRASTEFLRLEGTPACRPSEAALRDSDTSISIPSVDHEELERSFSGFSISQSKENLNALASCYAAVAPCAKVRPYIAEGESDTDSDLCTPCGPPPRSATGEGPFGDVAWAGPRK

## Clc1ccccc1CN1CCN(c2ncccn2)CC1
[1]
  EC50: 0.407 µM (active)
Mu-type opioid receptor
  EC50: 92.5 µM (inactive)

## O=C(Nc1cc(C(=O)Nc2ccccc2C(=O)O)cc(C(=O)Nc2ccccc2C(=O)O)c1)c1ccccc1
[2]
  IC50: 10.7 µM (active)
[3]
  IC50: 1.19 µM (active)
[4]
  EC50: > 53 µM (inactive)
[5]
  IC50: > 47.1 µM (inactive)
[6]
  IC50: 4.03 µM (active)
Genome polyprotein
  IC50: 12.7 µM (active)
[7]
  IC50: 7.45 µM (active)

## COc1ccc(OC)c(C2C(C(=O)c3ccco3)=C(O)C(=O)N2Cc2cccnc2)c1 (centres undefined)
Beta-lactamase [8]
  IC50: > 59.6 µM (inactive)
Beta Lactamase [9]
  IC50: 0.7 µM (active)
Beta-lactamase [10]
  IC50: > 59.6 µM (inactive)
Beta-lactamase [11]
  IC50: > 59.6 µM (inactive)
Beta Lactamase [12]
  IC50: 1.94 µM (active)

## OCCCCCN=c1cc(-c2ccccc2)oc2ccc(Cl)cc12
[13]
  EC50: > 10.1 µM (inactive)
H4
  EC50: 15.2 µM (active)
Prothrombin [14]
  IC50: 3.04 µM (active)
[15]
  EC50: 8.23 µM (active)
[16]
  EC50: 14.4 µM (active)
[17]
  EC50: > 10.1 µM (inactive)

## COc1ccc(CCNC(=O)C23CCC(C)(C(=O)C2Br)C3(C)C)cc1OC (centres undefined)
[18]
  AC50: 129 µM (active)

## COc1ccccc1CNC(=O)C(CC(C)C)NC(=O)C1CCC(C)CC1 (centres undefined)
[19]
  IC50: 0.21 µM (active)

## O=C1Nc2ccccc2S/C1=C/Nc1cccc(Cl)c1
[20]
  AC50: > 52 µM (inactive)
H4
  EC50: > 120 µM (not active)
[15]
  EC50: 32.5 µM (active)
Streptococcus
  EC50: 6.87 µM (active)
[16]
  EC50: > 120 µM (not active)
[21]
  EC50: 17.9 µM (active)
Streptokinase A
  EC50: > 150 µM (not active)

## COc1ccc(C(=O)Nc2ccc(/C(C)=N/NC(=O)c3ccncc3)cc2)cc1
Beta-lactamase [22]
  IC50: > 59.6 µM (inactive)
[23]
  IC50: 8.92 µM (active)
[24]
  IC50: > 80 µM (inactive)
[25]
  IC50: > 100 µM (inactive)
[26]
  IC50: 43 µM (active)
Prothrombin [27]
  IC50: > 100 µM (inactive)
Beta Lactamase [28]
  IC50: > 59.6 µM (inactive)
Beta-lactamase [29]
  IC50: 10.9 µM (inactive)

## CC(C)(C)NC(=O)C(c1cc2ccccc2o1)n1c(=O)c(-c2ccco2)nc2ccccc21 (centres undefined)
[30]
  IC50: 1.86 µM (active)

## O=C(c1ccco1)N1CCN(c2c3c(nc4cc(-c5cccc(F)c5)nn24)CCC3)CC1
[31]
  EC50: 7.76 µM (active)
[32]
  EC50: 6.31 µM (active)

## C[C@H](CO)N1C[C@H](C)[C@@H](CN(C)S(=O)(=O)c2cccc(F)c2)Oc2ncc(C#CC3CCCCC3)cc2C1=O
[33]
  AbsAC35: 324.37 µM
[34]
  AbsAC35: 44.29 µM

## Cc1nnc(N/N=C/c2ccc(-c3ccc(Br)cc3)o2)n1N
cells
  IC50: 9.58 µM (active)
[35]
  AC50: 127 µM (active)
